pEC50, pIC50: −log10 of the molar value. Read-outs that look alike come from different tables or passages of the source.
Legend:
Jurkat cells = assay: Viability Assay (Celltiter-Glo); format: cell-based; conditions: Homo sapiens, 4 hrs, read-out: Viability assessment EC50
Experimental: Viability Assay (Celltiter-Glo)
DMSO was stamped into empty wells at 60 nL/well (NC, Negative Control, maximum signal). […] Following incubation, the CellTiter-Glo assay was performed according to manufacturer's instructions (Promega CellTiter-Glo Luminescent Cell Viability Assay, cat. no. G7570).

IRAK4 [1] = target: T1, IRAK4 (Homo sapiens (Human), UniProt Q9NWZ3); assay: IRAK4 Biochemical HTRF Kinase Assay
Method in brief: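 HTRF KinEASE STK S1 format measuring IRAK4 phosphorylation of biotinylated peptide; reaction solution of 5 μM STK-S1, 10 mM ATP, 10 mM MgCl2 added (stock, to 10 μl final), 90 min at ambient temperature, detection 60 min. IC50 from sixteen-point duplicate curves by non-linear regression.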
Target sequence in this assay (Q9NWZ3 whole entry, species assumed): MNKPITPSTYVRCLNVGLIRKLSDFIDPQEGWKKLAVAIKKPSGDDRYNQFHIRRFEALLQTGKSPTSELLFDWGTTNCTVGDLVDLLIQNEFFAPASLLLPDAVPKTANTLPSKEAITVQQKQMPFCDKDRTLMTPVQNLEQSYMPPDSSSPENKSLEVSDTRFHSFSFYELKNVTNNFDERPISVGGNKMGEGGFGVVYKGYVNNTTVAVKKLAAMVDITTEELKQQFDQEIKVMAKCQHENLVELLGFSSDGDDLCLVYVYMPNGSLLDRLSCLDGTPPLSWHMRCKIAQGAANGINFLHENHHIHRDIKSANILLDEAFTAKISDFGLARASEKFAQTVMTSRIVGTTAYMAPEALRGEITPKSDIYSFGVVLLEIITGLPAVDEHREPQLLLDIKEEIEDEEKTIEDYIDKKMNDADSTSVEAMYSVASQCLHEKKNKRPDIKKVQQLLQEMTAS

IRAK1 = IRAK1 (Homo sapiens (Human), UniProt P51617); assay: Western Assay for IRAK1 Degradation; format: cell-based; conditions: wild-type Jurkat cells, 4 hrs
Experimental: Biological Example 4 Western Assay for IRAK4, IRAK1 and GSPT1 Degradation
DMSO was stamped into wells A12-H12 at 500 nL/well (NC, Negative Control, maximum signal). […] Following incubation, plates were centrifuged for 5 min at 1600 rpm. Media was removed and cell pellets were lysed in 50 μL lysis buffer (RIPA buffer (Fisher, PI89901), cOmplete Mini EDTA-free protease inhibitor (Sigma 11836170001), Protease Inhibitor Cocktail (Sigma, P2714), Phosphatase Inhibitor Cocktail 2 and 3 (Sigma, P5726 and P0044), Benzonase (Sigma, E1014)). Cells were lysed overnight at −20° C. Plates were centrifuged for 5 min at 1600 rpm and lysate supernatants were transferred to storage plates. Protein levels were determined by BCA Assay performed according to manufacturer's protocol (EMD Millipore, cat. no. 71285-3). Samples were combined with (4×) LDS Sample Buffer and (10×) Reducing Agent and H2O to equally load 10 ug protein per lane of a 26-well NuPAGE 4-12% Bis-Tris protein gel (1.0 mm, Thermo cat. no. NP0326). Samples were separated by running gels at constant 200 V in NuPAGE MES SDS Running Buffer. Following electrophoresis, proteins were transferred to nitrocellulose membranes using an iBlot Gel Transfer Device and iBlot Gel Transfer Stacks (Thermo cat. no. IB21001 and IB301001) and transfer method PO (20V 1 min, 23V 4 min, 25V 2 min). Membranes were blocked for 1 hr in 5% milk solution (TBS (0.2% Tween-20)).
Following blocking, membranes were incubated with primary antibody overnight at 4° C. with gentle shaking. The primary antibodies and dilutions used were as follows: IRAK4—abcam ab3200612, 1:500; IRAK1—Cell Signaling Technologies D51G7 #4504, 1:500; GSPT1—Cell Signaling Technologies #14980, 1:500). Blots were washed 3× in TBS (0.2% Tween-20), 5-10 min per wash. Following washes, blots were incubated in secondary HRP-conjugated antibody (Promega anti-Rabbit IgG (H+L) HRP, cat. no. W4011), 1:5000 in 5% milk solution (TBS (0.2% Tween-20)), for 1 hr at room temperature with gentle shaking. Blots were washed 3× in TBS (0.2% Tween-20), 5-10 min per wash. Blots were incubated with 1:1 mix of ECL reagents 1 & 2 (Amersham ECL Western Blotting Detection Reagent, cat. no. RPN2106) for 2-3 min at room temperature. Bands were visualized using a Protein Simple imager. Blots were then re-probed with a combination of anti-actin antibody (Sigma Monoclonal Mouse Anti-3-Actin (clone AC-15), cat. no. A5441) and secondary HRP-conjugated antibody (Promega anti-Mouse IgG (H+L) HRP, cat. no. W4021) and similar steps were taken for incubation, wash, detection and visualization steps as above. The data was analyzed using Alpha View software. The densitometric reading for each sample band was normalized to that of the corresponding actin band per lane.

IRAK4 [2] = target: T1, IRAK4; assay: IRAK4 Degradation Competition/Rescue Assay; format: cell-based; conditions: degrader 1 μM; 1 hr pre-treatment with Nedd8i (5 μM) or MG-132 (20 or 50 μM); HiBiT Jurkat clone 8D5
Description: IRAK4 Degradation Competition/Rescue Assay
Target sequence in this assay (Q9NWZ3 whole entry): as the sequence (Q9NWZ3 whole entry, species assumed) above

IRAK4 [3] = target: T1, IRAK4; assay: IRAK4 Degradation HTRF Assay; format: cell-based; conditions: wild-type Jurkat cells, 4 hrs
Experimental: DMSO was stamped into wells A12-H12 at 400 nL/well (NC, Negative Control, maximum signal). […] Following incubation, plates were centrifuged for 5 min at 1600 rpm. […] Cells were incubated 30 min at room temperature with gentle shaking. 16 μL each lysate was transferred to 96-well detection plate included in Cisbio Total IRAK4 HTRF Assay Kit (cat. no. 63ADK108PEG). To the lysates was added 2 μL each of Total-IRAK4 d2 antibody and Total-IRAK4 Cryptate antibody (Cisbio Total IRAK4 HTRF Assay Kit). Plates were incubated overnight at RT. Fluorescence emission at 665 nm and 620 nm was read using an EnVision plate reader. The HTRF Ratio was calculated per sample using the following equation: HTRF Ratio=(665 nm signal/620 nm signal)×10,000
Target sequence in this assay (Q9NWZ3 whole entry): as the sequence (Q9NWZ3 whole entry, species assumed) above

[4] = Table 2, CRBN-targeting compounds, read-out: IRAK4 biochemical IC50
[5] = Table 3, VHL-targeting compounds, read-out: IRAK4 biochemical IC50
[6] = Table 4, read-out: IRAK4 HTRF biochemical: IC50
[7] = Table 5, multiple runs, read-out: IRAK4 HTRF biochemical: IC50

IRAK1, sequence (P51617 whole entry): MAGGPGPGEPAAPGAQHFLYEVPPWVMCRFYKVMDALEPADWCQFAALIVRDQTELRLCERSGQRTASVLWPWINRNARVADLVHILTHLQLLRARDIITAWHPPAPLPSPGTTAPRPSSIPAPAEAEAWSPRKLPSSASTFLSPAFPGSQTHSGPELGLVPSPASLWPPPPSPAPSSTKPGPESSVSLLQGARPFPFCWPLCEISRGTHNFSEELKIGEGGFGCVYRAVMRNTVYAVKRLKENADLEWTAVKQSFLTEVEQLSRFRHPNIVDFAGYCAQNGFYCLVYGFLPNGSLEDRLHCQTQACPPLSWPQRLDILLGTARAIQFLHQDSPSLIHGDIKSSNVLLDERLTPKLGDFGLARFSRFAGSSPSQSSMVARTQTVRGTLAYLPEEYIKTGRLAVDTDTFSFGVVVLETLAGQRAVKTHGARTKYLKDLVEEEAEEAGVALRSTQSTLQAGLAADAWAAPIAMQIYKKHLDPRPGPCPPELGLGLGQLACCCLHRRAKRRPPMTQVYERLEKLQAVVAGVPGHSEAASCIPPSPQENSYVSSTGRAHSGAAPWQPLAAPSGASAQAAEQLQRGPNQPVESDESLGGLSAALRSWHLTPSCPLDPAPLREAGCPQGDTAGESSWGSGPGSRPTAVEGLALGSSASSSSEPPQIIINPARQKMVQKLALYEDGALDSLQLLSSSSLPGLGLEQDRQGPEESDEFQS

NC(=O)c1nn(-c2ccc(C(=O)NCCOCCOCCNc3cccc4c3C(=O)N(C3CCC(=O)NC3=O)C4=O)cc2)cc1NC(=O)c1coc(-c2ccnc(NCC(F)(F)F)c2)n1 (stereo not drawn) [Comparative Compound a2, reference compound]
pEC50 (Jurkat cells): < 5.00
pIC50 (IRAK4 [1]; [4]): 8.92
DC50 (IRAK1): > 10000 nM
Rescue by proteasome or Nedd8 inhibition (IRAK4 [2]): YES
DC50 (IRAK4 [3]): 60 nM
Dmax (IRAK4 [3]): 100%

Cc1ncsc1-c1ccc(CNC(=O)[C@@H]2C[C@@H](O)CN2C(=O)[C@@H](NC(=O)C2(F)CC2)C(C)(C)C)c(OCCOCCC(=O)N2CCN(c3nnc(-c4cnc(-c5ccc6cc(C#N)cnn56)cc4NC(C)C)s3)CC2)c1 [Example 47, (2S,4R)—N-(2-(2-(3-(4-(5-(6-(3-cyanopyrrolo[1,2-b]pyridazin-7-yl)-4-(isopropylamino)pyridin-3-yl)-1,3,4-thiadiazol-2-yl)piperazin-1-yl)-3-oxopropoxy)ethoxy)-4-(4-methylthiazol-5-yl)benzyl)-1-((S)-2-(1-fluorocyclopropane-1-carboxamido)-3,3-dimethylbutanoyl)-4-hydroxypyrrolidine-2-carboxamide]
pEC50 (Jurkat cells): < 5.00
pIC50 (IRAK4 [1]; [5]): 8.14
pIC50 (IRAK4 [1]; [6]): 8.14
pIC50 (IRAK4 [1]; [7]): 8.24
DC50 (IRAK1): > 10000 nM
Rescue by proteasome or Nedd8 inhibition (IRAK4 [2]): YES
DC50 (IRAK4 [3]): 140 nM
Dmax (IRAK4 [3]): > 100%
IRAK4 degradation by HTRF, in words (IRAK4 [3]): maximum IRAK4 degradation among the tested compounds

CC[C@@H]1[C@H](F)C(=O)N[C@@H]1COc1ncc(C#CCN2CCC3(CC2)CCN(c2ncc(C(=O)N[C@H](C(=O)N4C[C@H](O)C[C@H]4C(=O)NCc4ccc(-c5scnc5C)cc4)C(C)(C)C)cn2)CC3)c2cc(C(N)=O)c(OC)cc12 [Comparative b1, reference compound]
pEC50 (Jurkat cells): < 5.00
pIC50 (IRAK4 [1]; [5]): 8.64
DC50 (IRAK1): > 10000 nM
Rescue by proteasome or Nedd8 inhibition (IRAK4 [2]): YES
DC50 (IRAK4 [3]): 80 nM
Dmax (IRAK4 [3]): 100%

CC(C)Nc1cc(-c2ccc3cc(C#N)cnn23)ncc1-c1nnc(N2CCN(C(=O)C3CCN(CC4CCN(c5ccc(-c6nn(C7CCC(=O)NC7=O)c(=O)n6C)cc5)CC4)CC3)CC2)s1 (stereo not drawn) [Example 24, 7-(5-(5-(4-(1-((1-(4-(1-(2,6-dioxopiperidin-3-yl)-4-methyl-5-oxo-4,5-dihydro-1H-1,2,4-triazol-3-yl)phenyl)piperidin-4-yl)methyl)piperidine-4-carbonyl)piperazin-1-yl)-1,3,4-thiadiazol-2-yl)-4-(isopropylamino)pyridin-2-yl)pyrrolo[1,2-b]pyridazine-3-carbonitrile]
pEC50 (Jurkat cells): < 5.00
pIC50 (IRAK4 [1]; [4]): 9.22
pIC50 (IRAK4 [1]; [6]): 9.22
pIC50 (IRAK4 [1]; [7]): 9.22
DC50 (IRAK1): > 10000 nM
Rescue by proteasome or Nedd8 inhibition (IRAK4 [2]): YES
DC50 (IRAK4 [3]): 420 nM
Dmax (IRAK4 [3]): > 100%

CC(C)Nc1cc(-c2ccc3cc(C#N)cnn23)ncc1-c1nnc(N2CCN(C(=O)C3CCN(Cc4ccc5c(c4)C(=O)N(C4CCC(=O)NC4=O)C5=O)CC3)CC2)s1 (stereo not drawn) [Example 13, 7-(5-(5-(4-(1-((2-(2,6-dioxopiperidin-3-yl)-1,3-dioxoisoindolin-5-yl)methyl)piperidine-4-carbonyl)piperazin-1-yl)-1,3,4-thiadiazol-2-yl)-4-(isopropylamino)pyridin-2-yl)pyrrolo[1,2-b]pyridazine-3-carbonitrile]
pEC50 (Jurkat cells): < 5.00
pIC50 (IRAK4 [1]; [4]): 9.30
pIC50 (IRAK4 [1]; [6]): 9.30
pIC50 (IRAK4 [1]; [7]): 9.10
DC50 (IRAK1): > 10000 nM
Rescue by proteasome or Nedd8 inhibition (IRAK4 [2]): YES
DC50 (IRAK4 [3]): 50 nM
Dmax (IRAK4 [3]): > 100%

Cc1ncsc1-c1ccc(CNC(=O)[C@@H]2C[C@@H](O)CN2C(=O)[C@@H](NC(=O)CCCC(=O)N2CCN(c3nnc(-c4cnc(-c5ccc6cc(C#N)cnn56)cc4NC(C)C)s3)CC2)C(C)(C)C)cc1 [Example 35, (2S,4R)-1-((S)-2-(5-(4-(5-(6-(3-cyanopyrrolo[1,2-b]pyridazin-7-yl)-4-(isopropylamino)pyridin-3-yl)-1,3,4-thiadiazol-2-yl)piperazin-1-yl)-5-oxopentanamido)-3,3-dimethylbutanoyl)-4-hydroxy-N-(4-(4-methylthiazol-5-yl)benzyl)pyrrolidine-2-carboxamide]
pEC50 (Jurkat cells): < 5.00
pIC50 (IRAK4 [1]; [5]): 8.28
pIC50 (IRAK4 [1]; [6]): 8.28
pIC50 (IRAK4 [1]; [7]): 8.28
DC50 (IRAK1): > 10000 nM
Rescue by proteasome or Nedd8 inhibition (IRAK4 [2]): YES
DC50 (IRAK4 [3]): 400 nM
Dmax (IRAK4 [3]): 100%
